For one test, the system named is A549. The test is described as follows: Inhibitory concentration of compound against proliferation of lung carcinoma A549 cell line. The test is classed as functional, cell-based. To be noted: Homo sapiens.
The subject of a further test is Calf thymus DNA. The test is described as follows: In vitro calf thymus DNA binding affinity by ethidium bromide displacement. Type of test: nucleic-acid assay, Bos taurus.
Test [1] concerns HT-29. Briefly: Inhibitory concentration of compound against proliferation of colon carcinoma HT-29 cell line. The test is classed as functional, cell-based. The settings on record: Homo sapiens.
The next test concerns L1210. The test is described as follows: Inhibitory concentration of compound against proliferation of murine leukemia L1210 cell line. The test is classed as functional, cell-based. To be noted: Mus musculus.
Another test relates to Nucleic Acid. The test is described as follows: In vitro DNA binding affinity for calf thymus DNA was determined using ethidium bromide displacement assay; Not detected. The test is classed as nucleic-acid assay, Bos taurus.
Test [2] deals with HT-29. Briefly: Cell-cycle-phase distribution of HT-29 cell-cultures exposed to 10 uM concentration of compound for 22 hr in G0/G1 phase. The test is classed as functional, Homo sapiens.
Test [3] deals with HT-29. Briefly: Cell-cycle-phase distribution of HT-29 cell-cultures exposed to 10 uM concentration of compound for 22 hr in G2/M phase. Type of test: functional, Homo sapiens.
Test [4] has as its system HT-29. The test is described as follows: Cell-cycle-phase distribution of HT-29 cell-cultures exposed to 10 uM concentration of compound for 22 hr in S phase. The test is classed as functional, Homo sapiens.

The results in this text go back to ChEMBL document CHEMBL1135121, “Design and synthesis of some new pyranoxanthenone aminoderivatives with cytotoxic activity” (Bioorg Med Chem Lett, 2002).

Turning to `CCN(CC)CCNC(=O)c1cc2c(c3oc4ccccc4c(=O)c13)C=CC(C)(C)O2`, the IC50 was determined as 60 µM in the test on A549, 30 µM in the test on HT-29 [1] and 10 µM with L1210. The half-maximal effective concentration (EC50) in the test with Calf thymus DNA came to 150 µM.
In the same order, the values of `CN(C)CCNC(=O)c1cc2c(c3oc4ccccc4c(=O)c13)C=CC(C)(C)O2` are 90 µM, 12 µM, 16 µM and 197 µM.
As to `CCN(CC)CCNc1c2c(cc3oc4ccccc4c(=O)c13)OC(C)(C)C=C2.Cl`, the results for the IC50 in the test with A549, with HT-29 [1] and with L1210 were 25 µM, 8 µM and 5.1 µM, respectively. The EC50 result in the test on Nucleic Acid is reported as “Not detected”.
In the case of `CN(C)CCNc1cc2c(c3oc4ccccc4c(=O)c13)C=CC(C)(C)O2`, the IC50 in the test on A549 is 23 µM; in the test on HT-29 [1] it was 8 µM; in the test with L1210, 7.1 µM. For the same compound, in the test with Calf thymus DNA, it took 89 µM to reach a half-maximal effect (EC50).
In the same order, the values of `COc1cc2c(c3c1c(=O)c1ccccc1n3C)C=CC(C)(C)O2` [ACRONINE] are greater than 100 µM, greater than 100 µM, 27 µM and 82 µM.
Turning to `CCN(CC)CCNCc1c2c(cc3oc4ccccc4c(=O)c13)OC(C)(C)C=C2.Cl`, the IC50 in the test on A549 worked out at 8 µM; with HT-29 [1] it was 2 µM; in the test on L1210, 2 µM. Besides, the half-maximal effective concentration (EC50) in the test with Calf thymus DNA was found to be 30 µM. The Activity turned out to be 69.92 in the test with HT-29 [2], 8.86 in the test with HT-29 [3] and 21.22 in the test with HT-29 [4].
As for `CCN(CC)CCNCc1cc2c(c3oc4ccccc4c(=O)c13)C=CC(C)(C)O2.O=C(O)/C=C/C(=O)O`, the figures for the IC50 with A549, in the test with HT-29 [1] and in the test on L1210 were 11 µM, 1.7 µM and 2 µM, respectively. The compound further showed an EC50 in the test with Calf thymus DNA of 42 µM. Also, the Activity in the test with HT-29 [2] worked out at 79.7; in the test with HT-29 [3], 7.77; in the test with HT-29 [4], 12.53.
For `CN(C)CCNCc1c2c(cc3oc4ccccc4c(=O)c13)OC(C)(C)C=C2`, the results for the IC50 in the test on A549, in the test on HT-29 [1] and in the test with L1210 were 25 µM, 6.4 µM and 4 µM, respectively. This compound displayed an EC50 with Calf thymus DNA of 39 µM.
In the same order, the values of `O=C1c2c(O)ccc(O)c2C(=O)c2c(NCCNCCO)ccc(NCCNCCO)c21` [MITOXANTRONE] are 0.3 µM, 8 µM, 0.04 µM and 0.4 µM.
For `CCN(CC)CCNc1cc2c(c3oc4ccccc4c(=O)c13)C=CC(C)(C)O2` the same measures were greater than 100 µM, 42 µM, 8.4 µM and 88 µM.
Consider `CN(C)CCNc1c2c(cc3oc4ccccc4c(=O)c13)OC(C)(C)C=C2.Cl`, for which the IC50 in the test on A549 came to 30 µM; with HT-29 [1], 23 µM; in the test with L1210, 5.8 µM. Further, the EC50 entry in the test with Nucleic Acid is on record as “Not detected”.
Consider `CN(C)CCNC(=O)c1c2c(cc3oc4ccccc4c(=O)c13)OC(C)(C)C=C2`, for which the IC50 with A549 amounted to 57 µM; with HT-29 [1], 60 µM; with L1210, 12 µM. Further, a half-maximal effect with Calf thymus DNA (EC50) was put at 107 µM.
For `CCN(CC)CCNC(=O)c1c2c(cc3oc4ccccc4c(=O)c13)OC(C)(C)C=C2`, the IC50 was 51 µM in the test on A549, 40 µM in the test on HT-29 [1] and 9 µM in the test with L1210. This compound also displayed a concentration giving a half-maximal response (EC50) in the test with Calf thymus DNA of 100 µM. For the same compound, the results for the Activity in the test with HT-29 [2], in the test on HT-29 [3] and with HT-29 [4] were 61.24, 37.7 and 1.06, respectively.
On to `CN(C)CCNCc1cc2c(c3oc4ccccc4c(=O)c13)C=CC(C)(C)O2`, for which the IC50 in the test on A549 is 44 µM; in the test on HT-29 [1], 8.8 µM; in the test on L1210, 4.1 µM. This compound displayed a 50% effective concentration (EC50) with Calf thymus DNA of 74 µM.
